Test results published in US4277479A, “Tetrazolylalkoxycarbostyril derivatives and pharmaceutical compositions containing them” (Otsuka Pharmaceutical Co., Ltd., priority 1978, dated 1981).

Columns and labels:
[1] = target: T1, cyclic AMP phosphodiesterase (Oryctolagus cuniculus, UniProt G1ST54); assay: Obstructive action against cyclic AMP phosphodiesterase; format: biochemical, rabbit; settings: 0.4 μmol cyclic AMP, read-out: Phosphodiesterase obstruction rate; for inhibition at 1 µM: concentration of test compound solution 10^-6 mole; for inhibition: concentration of test compound solution 10^-7 mole; for inhibition at 0.01 µM: concentration of test compound solution 10^-8 mole; for inhibition at 0.001 µM: concentration of test compound solution 10^-9 mole
T1 construct: the supernatant was collected to use it as a crude enzyme solution; from tissue; host or cells: rabbit platelets (from platelet-rich plasma)
T1 sequence (G1ST54 1-1128): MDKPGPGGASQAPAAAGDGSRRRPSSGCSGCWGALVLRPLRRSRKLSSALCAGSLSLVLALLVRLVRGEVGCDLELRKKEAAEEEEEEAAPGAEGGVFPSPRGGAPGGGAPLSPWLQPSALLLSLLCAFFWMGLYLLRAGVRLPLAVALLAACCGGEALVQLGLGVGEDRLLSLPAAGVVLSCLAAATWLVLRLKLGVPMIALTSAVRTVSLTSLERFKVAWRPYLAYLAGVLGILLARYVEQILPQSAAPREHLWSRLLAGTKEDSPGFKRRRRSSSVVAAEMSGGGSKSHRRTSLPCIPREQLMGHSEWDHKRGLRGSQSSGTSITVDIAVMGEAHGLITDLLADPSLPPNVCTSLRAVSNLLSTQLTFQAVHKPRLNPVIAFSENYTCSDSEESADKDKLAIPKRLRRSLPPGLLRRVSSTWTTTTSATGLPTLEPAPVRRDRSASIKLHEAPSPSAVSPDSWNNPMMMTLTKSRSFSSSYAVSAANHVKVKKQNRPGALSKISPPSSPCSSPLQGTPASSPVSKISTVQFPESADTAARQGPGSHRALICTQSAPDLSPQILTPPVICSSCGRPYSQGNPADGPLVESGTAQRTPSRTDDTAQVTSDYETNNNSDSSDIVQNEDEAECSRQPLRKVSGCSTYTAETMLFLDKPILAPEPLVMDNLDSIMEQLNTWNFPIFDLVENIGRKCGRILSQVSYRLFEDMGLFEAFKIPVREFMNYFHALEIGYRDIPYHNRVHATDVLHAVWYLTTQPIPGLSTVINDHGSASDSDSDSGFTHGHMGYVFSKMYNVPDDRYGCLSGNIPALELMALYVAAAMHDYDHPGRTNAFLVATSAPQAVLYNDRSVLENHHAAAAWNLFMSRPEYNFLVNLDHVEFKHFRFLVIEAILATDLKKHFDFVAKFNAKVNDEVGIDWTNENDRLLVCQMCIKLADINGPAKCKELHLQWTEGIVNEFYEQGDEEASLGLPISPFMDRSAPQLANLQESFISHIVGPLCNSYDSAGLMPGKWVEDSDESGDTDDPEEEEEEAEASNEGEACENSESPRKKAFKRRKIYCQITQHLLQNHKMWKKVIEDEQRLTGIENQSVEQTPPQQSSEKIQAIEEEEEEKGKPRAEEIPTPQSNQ
Experimental: (Test of obstructive action against cyclic AMP phosphodiesterase)
The obstructive action against cyclic AMP phosphodiesterase was measured according to the activity measuring method described in "Biochimica et Biophysica Acta", Vol. 429, pp. 485-497 (1976) and "Biochemical Medicine", Vol. 10, pp. 301-311 (1974).
That is, for determining the obstructive activity against cyclic AMP phosphodiesterase, 10 ml of a solution obtained by adding 1 mmol of MgCl2 into 50 mmol of tris-hydrochloric acid buffer with pH 7.4 was added to the platelets obtained by further centrifuging the above-said rabbit PRP at 3,000 r.p.m. for 10 minutes, and the suspended platelets were ground by a Teflon potter type homogenizer. This was followed by two times of freezing and thawing treatment and 300-second fracturing with 200 watt supersonic waves. After additional 60-minute centrifugation with 100,000 g, the supernatant was collected to use it as a crude enzyme solution.
10 Milliliters of this crude buffer solution was added to a 1.5×20 cm DEAE-cellulose column which has previously been buffered with 50 mmol of tris-acetate buffer (pH 6.0), followed by washing and elution with 30 ml of 50 mmol tris-acetate buffer, and this buffer solution was subjected to linear gradient elution with 0 to 1 moles of sodium acetate-tris-acetate buffer. The flow rate was 0.5 ml/min, and 5 ml of each fraction was batched out. […] This fraction was used as cyclic AMP phosphodiesterase.
0.1 Milliliter of an aqueous solution of each test compound of a specified concentration was mixed with 40 mmol of tris-hydrochloric acid buffer (pH 8.0, containing 50 μg of cow serum albumin and 4 mmol of MgCl2) containing predetermined 0.4 μmol of cyclic AMP (tritium cyclic AMP), and 0.2 ml of this mixed solution was used as a substrate solution.
0.2 Milliliter of the above-prepared cyclic AMP phosphodiesterase of a predetermined concentration was added to said substrate solution and the mixture was reacted at 30° C. for 20 minutes, producing tritium 5'-AMP from the tritium cyclic AMP.
The reaction system was then immersed in boiling water for 2 minutes to stop the reaction, and then this reaction solution was cooled in ice water and, for converting the produced tritium 5'-AMP into tritium adenosine, the solution was added with 0.05 ml (1 mg/ml) of snake poison as 5'-nucleotidase and reacted at 30° C. for 10 minutes. The whole amount of this reaction solutions was then added to a cation exchange resin (AG 500 W×4, 200-400 meshes, manufactured by Bio-Rad Co., column size: 0.5×1.5 cm), and the produced tritium anodesine alone was allowed to combine, washed with 6 ml of distilled water and eluted with 1.5 ml of 3 N-ammonia water. The whole quantity of the elutant was added with 10 ml of a triton-toluene type scintillator and the produced tritium adenosine was measured by a liquid scintillation counter to determine the phosphodiesterase activity.
In this way, the phosphodiesterase activation value (Vs) of the test compounds of the respective concentrations was determined, and the phosphodiesterase obstruction rate (%) was determined from said activation value (Vs) and control value (Vc) (obtained from water not containing any test compound) from the following formula: [formula]

[2] = tested on: Deoxycorticosteroneacetate (DOCA)/saline hypertension rats (DHR); assay: Hypo-tensive effect, Deoxycorticosteroneacetate (DOCA)/saline hypertension rats (DHR), tail-cuff method; format: in vivo, rat; settings: 30 mg/kg oral, mean ± standard deviation
Experimental: Hypo-tensive effect of the compounds was measured by determining the maximum blood pressure of the test animals according to a procedure of Tail-cuff method.
The following types of test animals were used:
(2) Deoxycorticosteroneacetate (DOCA)/saline hypertension rats (DHR)
Wistar strain male rats having 150-170 g of body weight were anesthetized with ether and the left-side kidney was enucleated. One(1) week after the operation, 10 mg/kg of DOCA was injected subcutaneously once a week and 1% NaCl aqueous solution was given as drinking water. Five(5) weeks after the operation, rats having the maximum blood pressure over 150 mmHg were selected and used as test animals after having been denied food overnight.
Each of compounds to be tested was administered orally and the blood pressure of the rats was measured before the administration and 1, 2, 4, 6 and 8 hours after the administration. The blood pressure was measured by using Recorder (Rectihoriz type 8S, San-ei Instrument) and Electrosthygmomanometer PE-300 (Macro Bio-systems, Houston, Tex.).

O=c1ccc2cc(OCCCc3nnnn3C3CCCCCCC3)ccc2[nH]1 [Compound 6, 6-[3-(1-Cyclooctyltetrazol-5-yl)propoxy]carbostyril]
inhibition at 1 µM [1]: 88.4%
inhibition [1]: 79.6%
inhibition at 0.01 µM [1]: 57.4%
inhibition at 0.001 µM [1]: 36.5%
Maximum blood pressure, difference after the administration ([2]; 1 hour): -9.2 ± 4.8 mmHg
Maximum blood pressure, difference after the administration ([2]; 2 hours): -12.0 ± 5.6 mmHg
Maximum blood pressure, difference after the administration ([2]; 4 hours): -18.5 ± 6.1 mmHg
Maximum blood pressure, difference after the administration ([2]; 6 hours): -30.3 ± 10.8 mmHg
Maximum blood pressure, difference after the administration ([2]; 8 hours): -26.8 ± 10.6 mmHg

O=c1ccc2cc(OCCCc3nnnn3CC3CCCCC3)ccc2[nH]1 [Compound 5, 6-[3-(1-Cyclohexylmethyltetrazol-5-yl)propoxy]carbostyril]
inhibition at 1 µM [1]: 89.9%
inhibition [1]: 73.4%
inhibition at 0.01 µM [1]: 55.2%
inhibition at 0.001 µM [1]: 38.6%
Maximum blood pressure, difference after the administration ([2]; 1 hour): -10.7 ± 10.6 mmHg
Maximum blood pressure, difference after the administration ([2]; 2 hours): -15.2 ± 11.2 mmHg
Maximum blood pressure, difference after the administration ([2]; 4 hours): -12.5 ± 15.3 mmHg
Maximum blood pressure, difference after the administration ([2]; 6 hours): -18.1 ± 9.6 mmHg

O=c1ccc2cc(OCCCc3nnnn3C3CCCCC3)ccc2[nH]1 [Compound 1, 6-[3-(1-Cyclohexyltetrazol-5-yl)propoxy]carbostyril]
inhibition at 1 µM [1]: 92.9%
inhibition [1]: 83.8%
inhibition at 0.01 µM [1]: 58.4%
inhibition at 0.001 µM [1]: 44.7%
Maximum blood pressure, difference after the administration ([2]; 1 hour): -10.1 ± 3.7 mmHg
Maximum blood pressure, difference after the administration ([2]; 2 hours): -10.0 ± 3.7 mmHg
Maximum blood pressure, difference after the administration ([2]; 4 hours): -17.4 ± 5.2 mmHg
Maximum blood pressure, difference after the administration ([2]; 6 hours): -25.4 ± 10.5 mmHg
Maximum blood pressure, difference after the administration ([2]; 8 hours): -34.6 ± 13.5 mmHg

O=c1ccc2cc(OCCCCc3nnnn3C3CCCCC3)ccc2[nH]1 [Compound 7, 6-[4-(1-Cyclohexyltetrazol-5-yl)butoxy]carbostyril]
inhibition [1]: 98.4%
inhibition at 0.01 µM [1]: 68.3%
inhibition at 0.001 µM [1]: 50.6%
Maximum blood pressure, difference after the administration ([2]; 1 hour): -8.4 ± 10.3 mmHg
Maximum blood pressure, difference after the administration ([2]; 2 hours): -11.5 ± 8.5 mmHg
Maximum blood pressure, difference after the administration ([2]; 4 hours): -14.8 ± 7.7 mmHg
Maximum blood pressure, difference after the administration ([2]; 6 hours): -20.2 ± 14.0 mmHg
Maximum blood pressure, difference after the administration ([2]; 8 hours): -21.3 ± 19.1 mmHg
